Where two headings read alike, the source gives them in different places.
Legend:
[1] = system: green peach aphid (Myzus persicae); assay: Myzus persicae spray test (Chinese cabbage leaf discs); format: in vivo; conditions: for pest or weed control at 500 g/ha: Myzus persicae, foliar, read-out: efficacy in %
Experimental: Myzus persicae—Spray Test
To produce a suitable active ingredient formulation, 1 part by weight of active ingredient is dissolved with the stated parts by weight of solvent and made up with water containing an emulsifier concentration of 1000 ppm until the desired concentration is attained. To produce further test concentrations, the formulation is diluted with emulsifier-containing water.
After 5-6 days, the efficacy in % is determined. 100% means that all the aphids have been killed; 0% means that no aphids have been killed.

[2] = log P by HPLC on reversed-phase column (C18), EEC directive 79/831 Annex V.A8; format: physicochemical
[3] = system: green peach aphids (Myzus persicae); assay: Myzus persicae oral test; format: in vivo; conditions: for pest or weed control at 20 ppm: Myzus persicae, 120 h, read-out: efficacy in %
Experimental: (§1) Solvent: 100 parts by weight of acetone
Subsequently, the plates are sealed with parafilm, which a mixed population of green peach aphids (Myzus persicae) within a second microtitre plate is able to puncture and imbibe the solution through it.
After 5 days, the efficacy in % is determined. 100% means that all the aphids have been killed; 0% means that no aphids have been killed.

[4] = system: green peach aphids (Myzus persicae); assay: Myzus persicae oral test (MYZUPE O), comparison with prior art; format: in vivo; conditions: for Emax at 4 ppm / Emax at 0.8 ppm: Myzus persicae, po, read-out: % efficacy
Experimental: Myzus persicae—Oral Test (MYZUPE O)
as §1
50 μl of the active compound preparation are transferred into microtitre plates and made up to a final volume of 200 μl with 150 μl of IPL41 insect medium (33%+15% sugar). Subsequently, the plates are sealed with parafilm, which a mixed population of green peach aphids (Myzus persicae) within a second microtitre plate is able to puncture and imbibe the solution through it.
(§2) After the desired period of time (dat), the efficacy in % is determined. 100% means that all the aphids have been killed; 0% means that no aphids have been killed.

[5] = system: green peach aphid (Myzus persicae); assay: Myzus persicae spray test (MYZUPE), comparison with prior art; format: in vivo; conditions: for Emax at 100 g/ha: Myzus persicae, read-out: % efficacy
Experimental: Myzus persicae—Spray Test (MYZUPE)
Emulsifier: alkylaryl polyglycol ether
as §2

[6] = system: greenhouse red spider mite (Tetranychus urticae); assay: Tetranychus urticae spray test, OP-resistant; format: in vivo; conditions: application rate 500 g/ha, after 6 days, bean leaf discs; 100% = all spider mites killed
Experimental: Tetranychus urticae—Spray Test, OP-Resistant
After 6 days, the efficacy in % is determined. 100% means that all the spider mites have been killed; 0% means that no spider mites have been killed.

[7] = application rate 500 g/ha, after 5-6 days, Chinese cabbage leaf discs, 100% = all aphids killed
[8] = application rate 20 ppm, after 5 days, oral, 100% = all aphids killed
[9] = reversed-phase HPLC column (C18), neutral range, pH 7.8, HPLC C18, 43° C., preparation examples, read-out: log P[n]
[10] = reversed-phase HPLC column (C18), neutral range, pH 7.8, HPLC C18, 43° C., Table 1, read-out: logP [n]
[11] = 120 h, MYZUPE O, 0.8 ppm, 5 dat
[12] = 120 h, MYZUPE, 100 g of ai/ha, 5 dat
[13] = neutral range, pH 7.8, HPLC C18, 43° C., Table 1

logP [n] ([2]; pH 7.8) | chromatographic logP [2, 10] | Compound | efficacy in % [1, 7] | efficacy in % [3, 8] | pest or weed control at 500 g/ha [1, 7] | pest or weed control at 20 ppm [3, 8] | further results
0.94 |  | COCCNC(=O)c1ncc(C(=O)N(C)c2cccnc2)n1C [I-1-064] | 90% | 100% |  |  | 
1.57 |  | CC(C)CNC(=O)c1ncc(C(=O)N(C)c2cccnc2)n1C [I-1-065] | 100% | 100% |  |  | 
1.24 |  | CCNC(=O)c1ncc(C(=O)N(CC)c2cccnc2)n1C [I-1-066] | 100% | 100% |  |  | 
1.55 |  | CN(C(=O)c1cnc(C(=O)C(C)(C)C#N)n1C)c1cccnc1 [I-1-067] | 100% | 100% |  |  | 
1.12 |  | CCN(C)C(=O)c1ncc(C(=O)N(CC)c2cccnc2)n1C [I-1-068] | 100% | 90% |  |  | 
 | -0.2 | CN(C(=O)c1cnc(C(=O)NS(C)(=O)=O)n1C)c1cccnc1 [I-1-070] |  |  |  | 90% | Emax at 0.8 ppm [4, 11]: 100%
0.89 |  | CN(C(=O)c1cnc(C(=O)N2CCC2)n1C)c1cccnc1 [I-1-071] | 90% | 100% |  |  | 
1.03 |  | CN(C(=O)c1cnc(C(=O)NC2(C#N)CC2)n1C)c1cccnc1 [I-1-073] | 100% | 100% |  |  | 
 | 0.86 | CCn1c(C(=O)N(C)c2cccnc2)cnc1C(=O)N(C)C [I-1-074] |  |  | 100% | 90% | Emax at 0.8 ppm [4, 11]: 100%; Emax at 4 ppm ([4]; 120 h, MYZUPE O, 4 ppm, 5 dat): 100%; Emax at 100 g/ha [5, 12]: 90%
1.22 |  | CCOC(=O)CNC(=O)c1ncc(C(=O)N(C)c2cccnc2)n1C [I-1-075] | 90% | 100% |  |  | 
 | 0.78 | CN(C(=O)c1cnc(C(=O)NCC#N)n1C)c1cccnc1 [I-1-076] |  |  | 100% | 100% | efficacy in % [6]: 90%; Emax at 0.8 ppm [4, 11]: 90%; Emax at 4 ppm ([4]; 120 h, MYZUPE O, 4 ppm, 5 dat): 90%; Emax at 100 g/ha [5, 12]: 90%
1.39 |  | CN(C(=O)c1cnc(C(=O)NC(CO)c2ccccc2)n1C)c1cccnc1 (stereo not shown) [I-1-079] | 90% | 90% |  |  | 
1.11 |  | CN(C(=O)c1cnc(C(=O)N(C)S(C)(=O)=O)n1C)c1cccnc1 [I-1-081] | 90% | 100% |  |  | 
 | 1.02 | CN(C)C(=O)c1ncc(C(=O)N(c2cccnc2)C2CC2)n1C [I-1-083] |  |  | 90% | 90% | Emax at 100 g/ha [5, 12]: 90%
1.32 |  | CN(C(=O)c1cnc(C(=O)C2CC2)n1C)c1cccnc1 [I-1-084] | 90% | 100% |  |  | 

Further lines, the compound ahead of its results:

Compound | logP [n] ([2]; pH 7.8) | chromatographic logP [2, 10] | efficacy in % [1, 7] | efficacy in % [3, 8] | pest or weed control at 500 g/ha [1, 7] | pest or weed control at 20 ppm [3, 8] | further results
2-(Ethylcarbamothioyl)-N,1-dimethyl-N-(pyridin-3-yl)-1H-imidazole-5-carboxamide [I-1-056] | 1.42 |  | 100% | 100% |  |  | % efficacy ([4]; MYZUPE O, 0.8 ppm, 5 dat): 100%; % efficacy ([4]; MYZUPE O, 4 ppm, 5 dat): 100%; % efficacy ([5]; MYZUPE, 100 g of ai/ha, 5 dat): 100%
CN(C(=O)c1cnc(/C=N/OCC2CC2)n1C)c1cccnc1 [I-1-008, 2-[(E)-(Cyclopropylmethoxyimino)methyl]-N,1-dimethyl-N-(pyridin-3-yl)-1H-imidazole-5-carboxamide] |  |  |  |  | 100% | 100% | chromatographic logP [2, 9]: 1.78; efficacy in % [6]: 90%
CN(C(=O)c1cnc(/C=N/OCc2ccc(Cl)cc2)n1C)c1cccnc1 [I-1-010] | 2.43 |  | 90% | 90% |  |  | efficacy in % [6]: 90%
CN(C(=O)c1cnc(/C=N/OCc2cccnc2)n1C)c1cccnc1 [I-1-024] |  | 1.24 |  |  |  | 100% | Emax at 4 ppm ([4]; 144 h, MYZUPE O, 4 ppm, 6 dat): 90%
CCOC(=O)c1ncc(C(=O)N(C)c2cccnc2)n1C [I-1-025] |  | 1.1 |  |  |  |  | pest or weed control at 500 g/ha [1]: 90%; pest or weed control at 20 ppm ([3]; po): 100%; Emax at 0.8 ppm ([4]; 120 h): 90%; Emax at 4 ppm ([4]; 120 h): 100%; Emax at 100 g/ha [5]: 90%
CN(C)C(=O)c1ncc(C(=O)N(C)c2cccnc2)n1C [I-1-033] |  | 0.6 |  |  | 100% | 100% | Emax at 0.8 ppm [4, 11]: 100%; Emax at 4 ppm ([4]; 120 h, MYZUPE O, 4 ppm, 5 dat): 100%; Emax at 100 g/ha [5, 12]: 90%
CCN(C(=O)c1cnc(C=NOC)n1C)c1cccnc1 [I-1-044] |  | 1.29 |  |  | 100% |  | Emax at 4 ppm ([4]; 120 h, MYZUPE O, 4 ppm, 5 dat): 100%; Emax at 100 g/ha [5, 12]: 90%
CCN(C(=O)c1cnc(C=NN(C)C(=O)OC)n1C)c1cccnc1 [I-1-045] |  |  |  |  | 90% | 100% | chromatographic logP ([2]; neutral range, pH 7.8, HPLC C18, 43° C., Table 1, read-out: logP [n]): 1.28; Emax at 4 ppm ([4]; 120 h, MYZUPE O, 4 ppm, 5 dat): 100%; Emax at 100 g/ha [5, 12]: 90%
CN(C(=O)c1cnc(C(=O)Nc2ccccc2)n1C)c1cccnc1 [I-1-047] |  | 1.82 |  |  | 100% | 100% | Emax at 4 ppm ([4]; 120 h, MYZUPE O, 4 ppm, 5 dat): 100%; Emax at 100 g/ha [5, 12]: 90%
CN(C(=O)c1cnc(C(=O)NCc2ccccc2)n1C)c1cccnc1 [I-1-050] |  | 1.75 |  |  | 90% | 100% | Emax at 0.8 ppm [4, 11]: 90%; Emax at 4 ppm ([4]; 120 h, MYZUPE O, 4 ppm, 5 dat): 90%; Emax at 100 g/ha [5, 12]: 90%
CN(C(=O)c1cnc(C(=O)N2CCCC2)n1C)c1cccnc1 [I-1-054, N,1-Dimethyl-N-(pyridin-3-yl)-2-(pyrrolidin-1-ylcarbonyl)-1H-imidazole-5-carboxamide] |  | 1.02 |  |  | 100% | 100% | 
CCNC(=S)c1ncc(C(=O)N(C)c2cccnc2)n1C [I-1-057] | 1.64 |  | 90% | 100% |  |  | log P[a] ([2]; pH 2.7): 1.21; log P[n] ([2]; pH 7.8): 1.42
CCN(CC)C(=O)c1ncc(C(=O)N(C)c2cccnc2)n1C [I-1-058] |  |  | 100% | 100% |  |  | logP [n] [2, 13]: 1.11
CN(C(=O)c1cnc(C(=O)N2CCOCC2)n1C)c1cccnc1 [I-1-059] |  | 0.73 |  |  | 100% | 100% | Emax at 4 ppm ([4]; 120 h, MYZUPE O, 4 ppm, 5 dat): 100%; Emax at 100 g/ha [5, 12]: 100%
CN(C(=O)c1cnc(C(=O)NC2CC2)n1C)c1cccnc1 [I-1-062] | 1.06 |  | 100% | 100% |  |  | 
CON(C)C(=O)c1ncc(C(=O)N(C)c2cccnc2)n1C [I-1-069, N^2-Methoxy-N^2,N^5,1-trimethyl-N^5-(pyridin-3-yl)-1H-imidazole-2,5-dicarboxamide] |  |  |  |  | 100% | 100% | chromatographic logP [2, 9]: 0.72
CCN(C(=O)c1cnc(C(=O)N(C)C)n1C)c1cccnc1 [I-1-072] |  |  | 100% | 100% |  |  | logP [n] [2, 13]: 0.88
Cc1ccc(N(C)C(=O)c2cnc(C(=O)N(C)C)n2C)cn1 [I-1-080] |  |  | 90% | 100% |  |  | logP [n] [2, 13]: 0.81
CC(=O)c1ncc(C(=O)N(C)c2cccnc2)n1C [I-1-085] |  |  | 90% | 100% |  |  | logP [n] [2, 13]: 0.87
